Consider one molecule from paper PMC6658998, “Pharmacological characterization of the seven human NOX isoforms and their inhibitors” (Redox Biology, 2019).

Assay [1] in a line: Cell-free Amplex Red/HRP assay with 10 μM H2O2 (H2O2 scavenging / HRP inhibition). Conditions: H2O2 alone.
Experimental: This assay allows to detect H2O2 scavengers as well as HRP inhibitors. (iii) Another assay for determining antioxidant activity analyzes serial dilutions of compounds in the presence of free radical DPPH in methanol in transparent 96-well plates (200 μl/well). Absorbance was measured at 540 nm after 15 min incubation in the dark. All scavenging assays were performed with FlexStation 3 Multi-Mode Microplate Reader (Molecular Devices).
Assay [2] has as its target NOX5. Details: method as in PMID 27273790. Conditions: documented values, measured using Amplex Red/HRP assay; cited from earlier work.
Assay [3] concerns the target T1, human NOX1 (Homo sapiens, UniProt Q9Y5S8).
T1 construct: expressed in transfected cells; host or cells: CHO
T1 sequence (Q9Y5S8 1-564): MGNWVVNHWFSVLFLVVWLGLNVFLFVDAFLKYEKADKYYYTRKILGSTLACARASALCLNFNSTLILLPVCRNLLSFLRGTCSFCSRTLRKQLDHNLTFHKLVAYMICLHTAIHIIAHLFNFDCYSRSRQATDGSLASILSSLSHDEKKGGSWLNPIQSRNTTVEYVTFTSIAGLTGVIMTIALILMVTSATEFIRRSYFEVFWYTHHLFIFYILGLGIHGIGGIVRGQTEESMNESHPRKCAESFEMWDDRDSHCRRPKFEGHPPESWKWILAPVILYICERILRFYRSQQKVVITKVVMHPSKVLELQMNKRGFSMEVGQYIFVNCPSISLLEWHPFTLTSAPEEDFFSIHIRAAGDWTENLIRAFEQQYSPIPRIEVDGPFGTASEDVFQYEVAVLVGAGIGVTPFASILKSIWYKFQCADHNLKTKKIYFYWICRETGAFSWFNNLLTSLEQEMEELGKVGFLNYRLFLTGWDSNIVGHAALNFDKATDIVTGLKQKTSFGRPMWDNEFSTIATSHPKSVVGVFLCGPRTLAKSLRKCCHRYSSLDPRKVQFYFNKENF
T1 sequence (P13498 1-195 partner): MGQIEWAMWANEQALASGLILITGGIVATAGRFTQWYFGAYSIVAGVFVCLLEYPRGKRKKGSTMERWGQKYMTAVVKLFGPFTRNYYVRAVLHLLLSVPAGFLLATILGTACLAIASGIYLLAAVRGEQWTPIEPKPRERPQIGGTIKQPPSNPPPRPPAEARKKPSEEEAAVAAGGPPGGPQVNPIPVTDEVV
Nature of the assay: WST-1 O2•- detection in NOX1-expressing CHO cells. The assay is classed as cell-based. As to conditions: NOX1 expressing cells, concentration-response. Background: Tetrazolium assays rely on reduction of a dye to a coloured formazan, in cell work by metabolically active cells.

The target of assay [4] is NOX1. Details: method as in PMID 27273790. Conditions: documented values, measured using Amplex Red/HRP assay; cited from earlier work.
The target of assay [5] is T2, human NOX4 (Homo sapiens, UniProt Q9NPH5).
T2 sequence (Q9NPH5 1-578): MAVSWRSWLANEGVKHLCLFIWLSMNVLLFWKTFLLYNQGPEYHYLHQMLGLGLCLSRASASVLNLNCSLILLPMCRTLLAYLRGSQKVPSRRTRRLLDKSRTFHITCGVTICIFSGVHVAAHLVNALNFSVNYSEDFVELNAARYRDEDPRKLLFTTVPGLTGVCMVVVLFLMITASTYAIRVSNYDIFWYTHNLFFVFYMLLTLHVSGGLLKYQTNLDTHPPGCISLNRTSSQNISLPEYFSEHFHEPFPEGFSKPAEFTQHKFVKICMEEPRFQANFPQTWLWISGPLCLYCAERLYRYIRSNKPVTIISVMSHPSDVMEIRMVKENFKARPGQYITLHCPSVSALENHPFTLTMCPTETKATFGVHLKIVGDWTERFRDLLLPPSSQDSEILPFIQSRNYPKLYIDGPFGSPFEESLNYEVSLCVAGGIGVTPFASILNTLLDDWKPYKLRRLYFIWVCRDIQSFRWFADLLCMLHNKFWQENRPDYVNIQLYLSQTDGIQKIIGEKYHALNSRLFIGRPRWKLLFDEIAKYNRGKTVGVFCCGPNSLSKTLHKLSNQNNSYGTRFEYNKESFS
T2 sequence (P13498 1-195 partner): T1 sequence (P13498 1-195 partner)
Nature of the assay: WST-1 O2•- detection in tetracycline-induced NOX4 HEK293 T-REx cells. The assay is classed as cell-based. Conditions: NOX4 expressing cells, concentration-response.

On to `CN(C)c1cccc(-c2c3c(=O)n(-c4ccccc4Cl)[nH]c3cc(=O)n2C)c1` [GKT137831], for which, in assay [1], the “Effect on Amplex red/HRP signal in the presence of H2O2 alone” value is “inhibits the Amplex red/HRP signal”. Further, the “Ki NOX5” value in assay [2] is recorded as “nanomolar range”. Moreover, in assay [3], the “Activity on NOX1 in the WST-1 assay” value is “inactive”. The “Ki NOX1” value in assay [4] is given as “nanomolar range”. In assay [5], the “Activity on NOX4 in the WST-1 assay” value is “inactive”.
